Experimental data taken from patent US5441983A, “Treatment of infection by enveloped virus with calix(N)arene compounds” (Genelabs Incorporated, priority 1992, dated 1995).
≈ marks a conversion by molar mass, not a printed value.

Tests used:
[1] = tested on: HSV-1; assay: Inactivation of purified HSV-1 by compound, plaque number after serial dilution; details: 10 μg/ml, duplicate
Protocol: In a third study, purified HSV-1 virus suspensions were incubated with KY-1 or the sodium salt thereof, or a control solution for 1 hour, then serially diluted to drug concentrations between 10^1 to 10^-4 μg/ml as described in Example 16. The "X" symbol in the table indicates plaques too numerous to count.
Purified HSV-1 was suspended in RPMI-1640 medium (Gibco Laboratories) containing 2% FCS, penicillin and streptomycin. […] The suspensions were incubated for 1 hour at 37° C., then diluted serially at 10 fold dilutions to final drug concentrations of 10, 10^0, 10^-1, 10^-2, 10^-3 and 10^-4 μg/ml drug concentrations The serially diluted particles were then added to Vero cells for two hours, as in Example 6, and the cells examined for plaques 48 hours later.

[2] = tested on: HIV-HXB; assay: Inhibition of syncytia formation, HIV-HXB (HTLV-IIIB); details: for EC100: Human immunodeficiency virus 1, 18 h, read-out: HIV-HXB ED100, complete inhibition of syncytia formation; for HIV-HXB ED100: complete inhibition of syncytia formation
[3] = tested on: HSV-1; assay: Plaque reduction assay, HSV-1, Vero cells; assay type: cell-based, HSV-1 (Kos-1); details: plaque reduction, Vero cells; for IC50: Human alphaherpesvirus 1, Vero
Protocol: (§1) used in Table 3 were further tested for activity against HSV infection in
(§2) a plaque reduction assay, as detailed in Example 6. Here Vero cells, after
(§3) overnight incubation, were exposed to serial dilutions of KY compound,
(§4) from 0.625-10 μg/ml, and HSV-1 or HSV-2 virus for two hours. After
(§5) washing to remove drug and extracellular virus, the cells were further
(§6) incubated for 2 days, then stained and counted for plaque formation.
(§7) Percent inhibition was determined by dividing plaques produced by total
(§8) number of plaques in infected, untreated controls. From the concentration
(§9) effect curve of plaque inhibition (expressed as percent of control), the
(§10) concentration of compound required to produce 50% plaque reduction,
(§11) IC50, was determined. The IC50 values for infection by HSV-1 and
(§12) HSV-2 infection is given in the right-hand columns in Table 3. With

[4] = tested on: HSV-2; assay: Plaque reduction assay, HSV-2, Vero cells; assay type: cell-based, HSV-2 (333); details: for IC50: Human alphaherpesvirus 2, Vero
Protocol: as §1, §2, §3, §4, §5, §6, §7, §8, §9, §10, §11, §12

[5] = tested on: HIV-RF-II; assay: Inhibition of syncytia formation, HIV-RF-II; details: for EC100: Human immunodeficiency virus 1, 18 h, read-out: HIV-RF-II ED100, complete inhibition of syncytia formation; for HIV-RF-II ED100: complete inhibition of syncytia formation
Protocol: Briefly, cells chronically infected with HTLV-IIIB or RF-II HIV strains were incubated in the presence of serial dilutions of the selected KY compound, then further cocultured with indicator cells. The extent of syncytia formation was scored under phase microscopy.
Representative calix(n)arene compounds from Table 2 were tested for inhibition of cytopathic effects in cells infected with one of two HTLV-III strains, HTLV-IIIB and RF-II strains, as described in Example 12, and in the subsection above.
Human CD4^+ indicator cells (VB) and chronically infected H9 cells were maintained in RPMI-1640 medium supplemented with 5% fetal calf serum, 100 Units of penicillin per ml and 100 μg of streptomycin per ml at 37° C. in a humidified incubator containing 7% CO2.
For the fusion assay, serial dilutions between 1:2 and 1:2^8 of a selected KY compound, 1 mg/ml in PBS were made in a 96 well round bottom plate. The diluted KY compound was transferred to a 96 well flat-bottom plate. To each well was added 25 μg chronically infected H9 cells (at 2×10^6, cells/ml), or cells chronically infected with RF-II strain HIV, followed by incubation at 37° C. for 45 minutes. To each well was then added 25 μl VB cells (about 5×10^4 cells), and the cells and virus isolates were cocultured for 18 hours in a humid 5% CO2 atmosphere.

SMILES | EC100 [2] | EC100 [5] | other results
O=S(=O)(O)c1cc2cc(S(=O)(=O)O)c3c(O)c2c(O)c1Cc1c(S(=O)(=O)O)cc2cc(S(=O)(=O)O)c(c(O)c2c1O)Cc1c(S(=O)(=O)O)cc2cc(S(=O)(=O)O)c(c(O)c2c1O)Cc1c(S(=O)(=O)O)cc2cc(S(=O)(=O)O)c(c(O)c2c1O)C3 [KY 217] |  |  | Plaque number, dilution 1 ([1]; 0.3 pfu/cell): 2,8; Plaque number, dilution 10^1 ([1]; 0.3 pfu/cell): 3,3; Plaque number, dilution 1 ([1]; 3 pfu/cell): X,X; Plaque number, dilution 10^1 ([1]; 3 pfu/cell): X,X; Plaque number, dilution 10^2 ([1]; 3 pfu/cell): 6,0; Plaque number, dilution 10^3 ([1]; 3 pfu/cell): 5,0
O=S(=O)(O)c1c2c(O)c3c(O)c(c(S(=O)(=O)O)c(O)c3c1O)C(c1ccccc1)c1c(S(=O)(=O)O)c(O)c3c(O)c(S(=O)(=O)O)c(c(O)c3c1O)C(c1ccccc1)c1c(S(=O)(=O)O)c(O)c3c(O)c(S(=O)(=O)O)c(c(O)c3c1O)C(c1ccccc1)c1c(S(=O)(=O)O)c(O)c3c(O)c(S(=O)(=O)O)c(c(O)c3c1O)C2c1ccccc1 (centres unmarked) [KY-85] | 32 µg/mL |  | 
Oc1c2c(S)cc3cc(S)c(c(O)c13)Cc1c(S)cc3cc(S)c(c(O)c3c1O)Cc1c(S)cc3cc(S)c(c(O)c3c1O)Cc1c(S)cc3cc(S)c(c(O)c3c1O)C2 [KY-171] | 125 µg/mL | 250 µg/mL | IC50 [3]: 2.5 mg/L (≈ 2.64 µM); IC50 [4]: 3 mg/L (≈ 3.17 µM)
O=S(=O)(Nc1ccccc1)c1cc2cc(S(=O)(=O)Nc3ccccc3)c3c(O)c2c(O)c1Cc1c(S(=O)(=O)Nc2ccccc2)cc2cc(S(=O)(=O)Nc4ccccc4)c(c(O)c2c1O)Cc1c(S(=O)(=O)Nc2ccccc2)cc2cc(S(=O)(=O)Nc4ccccc4)c(c(O)c2c1O)Cc1c(S(=O)(=O)Nc2ccccc2)cc2cc(S(=O)(=O)Nc4ccccc4)c(c(O)c2c1O)C3 [KY-176] | 125 µg/mL | 250 µg/mL | 
O=S(=O)(O)c1c2c(O)c3c(O)c(c(S(=O)(=O)O)c(Br)c3c1Br)C(C(Br)CBr)c1c(S(=O)(=O)O)c(Br)c3c(Br)c(S(=O)(=O)O)c(c(O)c3c1O)C(C(Br)CBr)c1c(S(=O)(=O)O)c(Br)c3c(Br)c(S(=O)(=O)O)c(c(O)c3c1O)C(C(Br)CBr)c1c(S(=O)(=O)O)c(Br)c3c(Br)c(S(=O)(=O)O)c(c(O)c3c1O)C2C(Br)CBr (centres unmarked) [KY-193] | 63 µg/mL | 500 µg/mL | 
CC(=O)Oc1c2c(S(=O)(=O)O)cc3cc(S(=O)(=O)O)c(c(OC(C)=O)c13)Cc1c(S(=O)(=O)O)cc3cc(S(=O)(=O)O)c(c(OC(C)=O)c3c1OC(C)=O)Cc1c(S(=O)(=O)O)cc3cc(S(=O)(=O)O)c(c(OC(C)=O)c3c1OC(C)=O)Cc1c(S(=O)(=O)O)cc3cc(S(=O)(=O)O)c(c(OC(C)=O)c3c1OC(C)=O)C2 [KY-270] | 16 µg/mL | 32 µg/mL | 
CC(=O)Oc1c2c(S(=O)(=O)O)cc3cc(S(=O)(=O)O)c(c(OC(C)=O)c13)C(C(=O)O)c1c(S(=O)(=O)O)cc3cc(S(=O)(=O)O)c(c(OC(C)=O)c3c1OC(C)=O)C(C(=O)O)c1c(S(=O)(=O)O)cc3cc(S(=O)(=O)O)c(c(OC(C)=O)c3c1OC(C)=O)C(C(=O)O)c1c(S(=O)(=O)O)cc3cc(S(=O)(=O)O)c(c(OC(C)=O)c3c1OC(C)=O)C2C(=O)O (centres unmarked) [KY-272] | 63 µg/mL | 250 µg/mL | 
CCC(=O)Oc1c2c(S(=O)(=O)O)cc3cc(S(=O)(=O)O)c(c(OC(=O)CC)c13)Cc1c(S(=O)(=O)O)cc3cc(S(=O)(=O)O)c(c(OC(=O)CC)c3c1OC(=O)CC)Cc1c(S(=O)(=O)O)cc3cc(S(=O)(=O)O)c(c(OC(=O)CC)c3c1OC(=O)CC)Cc1c(S(=O)(=O)O)cc3cc(S(=O)(=O)O)c(c(OC(=O)CC)c3c1OC(=O)CC)C2 [KY-276] | 16 µg/mL | 32 µg/mL | 
COc1c2c(S(=O)(=O)O)cc3cc(S(=O)(=O)O)c(c(OC)c13)Cc1c(S(=O)(=O)O)cc3cc(S(=O)(=O)O)c(c(OC)c3c1OC)Cc1c(S(=O)(=O)O)cc3cc(S(=O)(=O)O)c(c(OC)c3c1OC)Cc1c(S(=O)(=O)O)cc3cc(S(=O)(=O)O)c(c(OC)c3c1OC)C2 [KY-280] |  |  | HSV-1 IC50 [3]: 1.1 mg/L; HSV-2 IC50 [4]: 1 mg/L; HIV-RF-II ED100 [5]: 32; HIV-HXB ED100 [2]: 16
CCCC(=O)Oc1c2c(S(=O)(=O)O)cc3cc(S(=O)(=O)O)c(c(OC(=O)CCC)c13)Cc1c(S(=O)(=O)O)cc3cc(S(=O)(=O)O)c(c(OC(=O)CCC)c3c1OC(=O)CCC)Cc1c(S(=O)(=O)O)cc3cc(S(=O)(=O)O)c(c(OC(=O)CCC)c3c1OC(=O)CCC)Cc1c(S(=O)(=O)O)cc3cc(S(=O)(=O)O)c(c(OC(=O)CCC)c3c1OC(=O)CCC)C2 [KY-281] | 16 µg/mL | 32 µg/mL | 
COc1c2c(S(=O)(=O)O)cc3cc(S(=O)(=O)O)c(c(OC)c13)C(C(=O)O)c1c(S(=O)(=O)O)cc3cc(S(=O)(=O)O)c(c(OC)c3c1OC)C(C(=O)O)c1c(S(=O)(=O)O)cc3cc(S(=O)(=O)O)c(c(OC)c3c1OC)C(C(=O)O)c1c(S(=O)(=O)O)cc3cc(S(=O)(=O)O)c(c(OC)c3c1OC)C2C(=O)O (centres unmarked) [KY-284] | 16 µg/mL | 32 µg/mL | 
CCCC(=O)Oc1c2c(S(=O)(=O)O)cc3cc(S(=O)(=O)O)c(c(OC(=O)CCC)c13)Cc1c(S(=O)(=O)O)cc3cc(S(=O)(=O)O)c(c(OC(=O)CCC)c3c1OC(=O)CCC)Cc1c(S(=O)(=O)O)cc3cc(S(=O)(=O)O)c(c(OC(=O)CCC)c3c1OC(=O)CCC)Cc1c(S(=O)(=O)O)cc3cc(S(=O)(=O)O)c(c(OC(=O)CCC)c3c1OC(=O)CCC)C2 [KY-288] |  |  | HIV-RF-II ED100 [5]: 16; HIV-HXB ED100 [2]: 8
CCCCC(=O)Oc1c2c(S(=O)(=O)O)cc3cc(S(=O)(=O)O)c(c(OC(=O)CCCC)c13)Cc1c(S(=O)(=O)O)cc3cc(S(=O)(=O)O)c(c(OC(=O)CCCC)c3c1OC(=O)CCCC)Cc1c(S(=O)(=O)O)cc3cc(S(=O)(=O)O)c(c(OC(=O)CCCC)c3c1OC(=O)CCCC)Cc1c(S(=O)(=O)O)cc3cc(S(=O)(=O)O)c(c(OC(=O)CCCC)c3c1OC(=O)CCCC)C2 [KY-289] | 16 µg/mL | 32 µg/mL | 
CCCCCC(=O)Oc1c2c(S(=O)(=O)O)cc3cc(S(=O)(=O)O)c(c(OC(=O)CCCCC)c13)Cc1c(S(=O)(=O)O)cc3cc(S(=O)(=O)O)c(c(OC(=O)CCCCC)c3c1OC(=O)CCCCC)Cc1c(S(=O)(=O)O)cc3cc(S(=O)(=O)O)c(c(OC(=O)CCCCC)c3c1OC(=O)CCCCC)Cc1c(S(=O)(=O)O)cc3cc(S(=O)(=O)O)c(c(OC(=O)CCCCC)c3c1OC(=O)CCCCC)C2 [KY-291] | 16 µg/mL | 32 µg/mL | 
CC=CC(=O)Oc1c2c(S(=O)(=O)O)cc3cc(S(=O)(=O)O)c(c(OC(=O)C=CC)c13)Cc1c(S(=O)(=O)O)cc3cc(S(=O)(=O)O)c(c(OC(=O)C=CC)c3c1OC(=O)C=CC)Cc1c(S(=O)(=O)O)cc3cc(S(=O)(=O)O)c(c(OC(=O)C=CC)c3c1OC(=O)C=CC)Cc1c(S(=O)(=O)O)cc3cc(S(=O)(=O)O)c(c(OC(=O)C=CC)c3c1OC(=O)C=CC)C2 [KY-293] | 16 µg/mL | 63 µg/mL | 
O=C(O)CCCCCCC(=O)Oc1c2c(S(=O)(=O)O)cc3cc(S(=O)(=O)O)c(c(OC(=O)CCCCCCC(=O)O)c13)Cc1c(S(=O)(=O)O)cc3cc(S(=O)(=O)O)c(c(OC(=O)CCCCCCC(=O)O)c3c1OC(=O)CCCCCCC(=O)O)Cc1c(S(=O)(=O)O)cc3cc(S(=O)(=O)O)c(c(OC(=O)CCCCCCC(=O)O)c3c1OC(=O)CCCCCCC(=O)O)Cc1c(S(=O)(=O)O)cc3cc(S(=O)(=O)O)c(c(OC(=O)CCCCCCC(=O)O)c3c1OC(=O)CCCCCCC(=O)O)C2 [KY-294] | 16 µg/mL | 16 µg/mL | 
O=C(O)CCCCCOc1c2c(S(=O)(=O)O)cc3cc(S(=O)(=O)O)c(c(OCCCCCC(=O)O)c13)Cc1c(S(=O)(=O)O)cc3cc(S(=O)(=O)O)c(c(OCCCCCC(=O)O)c3c1OCCCCCC(=O)O)Cc1c(S(=O)(=O)O)cc3cc(S(=O)(=O)O)c(c(OCCCCCC(=O)O)c3c1OCCCCCC(=O)O)Cc1c(S(=O)(=O)O)cc3cc(S(=O)(=O)O)c(c(OCCCCCC(=O)O)c3c1OCCCCCC(=O)O)C2 [KY-307] | 8 µg/mL | 32 µg/mL | 
O=C(O)CNS(=O)(=O)c1cc2cc(S(=O)(=O)NCC(=O)O)c3c(O)c2c(O)c1Cc1c(S(=O)(=O)NCC(=O)O)cc2cc(S(=O)(=O)NCC(=O)O)c(c(O)c2c1O)Cc1c(S(=O)(=O)NCC(=O)O)cc2cc(S(=O)(=O)NCC(=O)O)c(c(O)c2c1O)Cc1c(S(=O)(=O)NCC(=O)O)cc2cc(S(=O)(=O)NCC(=O)O)c(c(O)c2c1O)C3 [KY-357] | 32 µg/mL | 63 µg/mL | 
O=S(=O)(NO)c1cc2cc(S(=O)(=O)NO)c3c(O)c2c(O)c1Cc1c(S(=O)(=O)NO)cc2cc(S(=O)(=O)NO)c(c(O)c2c1O)Cc1c(S(=O)(=O)NO)cc2cc(S(=O)(=O)NO)c(c(O)c2c1O)Cc1c(S(=O)(=O)NO)cc2cc(S(=O)(=O)NO)c(c(O)c2c1O)C3 [KY-359] | 32 µg/mL | 63 µg/mL | IC50 [3]: 5.75 mg/L (≈ 3.97 µM); IC50 [4]: 4.2 mg/L (≈ 2.9 µM)
O=S(=O)(O)c1cc2c(O)c(c1)Cc1cc(S(=O)(=O)O)cc(c1O)Cc1cc(S(=O)(=O)O)cc(c1O)Cc1cc(S(=O)(=O)O)cc(c1O)C2 [Y-49] |  |  | IC50 [3]: 5 mg/L (≈ 6.71 µM); IC50 [4]: 10 mg/L (≈ 13.4 µM)
O=C(O)C1c2c(S(=O)(=O)O)cc3cc(S(=O)(=O)O)c(c(O)c3c2O)C(C(=O)O)c2c(S(=O)(=O)O)cc3cc(S(=O)(=O)O)c(c(O)c3c2O)C(C(=O)O)c2c(S(=O)(=O)O)cc3cc(S(=O)(=O)O)c(c(O)c3c2O)C(C(=O)O)c2c(S(=O)(=O)O)cc3cc(S(=O)(=O)O)c1c(O)c3c2O (centres unmarked) [Y-66] |  |  | IC50 [3]: > 10 mg/L; IC50 [4]: > 10 mg/L
O=S(=O)(O)c1cc2c(O)c(c1)Cc1cc(S(=O)(=O)O)cc(c1O)Cc1cc(S(=O)(=O)O)cc(c1O)Cc1cc(S(=O)(=O)O)cc(c1O)Cc1cc(S(=O)(=O)O)cc(c1O)Cc1cc(S(=O)(=O)O)cc(c1O)C2 [Y-77] |  |  | IC50 [3]: 8 mg/L (≈ 7.16 µM); IC50 [4]: 11 mg/L (≈ 9.85 µM)
